How the values were obtained:
human D2sR (D2shortR) = target: T1, human D2sR (D2shortR) (Homo sapiens, UniProt P14416); assay: [3H]spiperone displacement, CHO-K1 membranes; format: binding; details: read-out: D2sR pKi ± SEM ^b (converted)
T1 construct: gene DRD2; full-length short isoform stably expressed in CHO-K1 cells, membrane fraction
From the text: [3H]spiperone displacement, CHO-K1 membranes on human D2sR (D2shortR)

human D3R = target: T2, human D3R (Homo sapiens, UniProt P35462); assay: [3H]spiperone displacement, CHO-K1 membranes; format: binding; details: read-out: D3R pKi ± SEM ^b (converted)
T2 construct: gene DRD3; full-length, stably expressed in CHO-K1 cells, membrane fraction
T2 sequence (P35462 whole entry): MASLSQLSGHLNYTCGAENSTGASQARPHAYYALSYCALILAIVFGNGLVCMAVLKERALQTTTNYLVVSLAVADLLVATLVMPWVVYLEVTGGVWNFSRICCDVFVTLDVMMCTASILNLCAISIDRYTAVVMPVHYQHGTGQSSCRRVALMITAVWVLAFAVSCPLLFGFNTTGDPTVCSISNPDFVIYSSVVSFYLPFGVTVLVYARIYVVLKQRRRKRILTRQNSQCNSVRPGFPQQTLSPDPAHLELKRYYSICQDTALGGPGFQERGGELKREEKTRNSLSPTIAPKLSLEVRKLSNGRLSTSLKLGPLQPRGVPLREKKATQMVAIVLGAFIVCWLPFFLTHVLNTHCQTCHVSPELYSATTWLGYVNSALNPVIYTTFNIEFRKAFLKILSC
From the text: [3H]spiperone displacement, CHO-K1 membranes on human D3R

T1 sequence (P14416 1-414 isoform P14416-2): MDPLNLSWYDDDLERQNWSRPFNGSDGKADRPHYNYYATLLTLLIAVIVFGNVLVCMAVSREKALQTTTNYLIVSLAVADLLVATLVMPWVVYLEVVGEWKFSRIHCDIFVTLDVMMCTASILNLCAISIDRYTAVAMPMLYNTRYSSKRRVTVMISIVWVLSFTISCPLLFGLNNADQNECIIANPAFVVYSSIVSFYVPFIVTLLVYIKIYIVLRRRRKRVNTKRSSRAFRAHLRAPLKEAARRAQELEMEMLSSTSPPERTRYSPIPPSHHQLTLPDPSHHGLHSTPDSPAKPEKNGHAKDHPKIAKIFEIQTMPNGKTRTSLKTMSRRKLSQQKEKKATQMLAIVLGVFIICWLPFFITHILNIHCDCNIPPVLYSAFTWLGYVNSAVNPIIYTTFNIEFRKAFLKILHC

`N=C(N)N(CCCCN1CCN(CCCCN(Cc2ccc(C(F)(F)F)cc2)C(=N)N)CC1)Cc1ccc(C(F)(F)F)cc1` [compound 30] gave a Ki (human D2sR (D2shortR)) of 0.759 µM and a Ki (human D3R) of 14.5 µM.

Source: PMC11596355, “Virtual Screening Approaches to Identify Promising Multitarget-Directed Ligands for the Treatment of Autism Spectrum Disorder” (Molecules, 2024)
